Data published in patent publication US20060078629A1, “Nutritional compositions and use thereof” (priority 2003, published 2006).

Legend:
[1] = slow (e.g. 20 minutes) intravenous injection, 400 mg glutathione in 20 ml saline
Text: According to one aspect of the invention, the intravenous administration of glutathione is used to achieve the desired blood levels. […] Repeated injections may be necessary in severely ill patients.

[2] = system: chemically induced cancers; conditions: in vivo; cited from earlier work
[3] = system: DNA damage in various tissues; conditions: Food Chem Toxicol 2000, 38:15; cited from earlier work

SMILES: N[C@@H](CCC(=O)N[C@@H](CS)C(=O)NCC(=O)O)C(=O)O [glutathione]
- achieving the desired blood glutathione levels [1]: effective

SMILES: OCc1c[nH]c2ccccc12 [Example I3C, Indole-3-carbinol]
- prevention of chemically induced cancers [2]: up to 90%
- decrease of DNA damage in various tissues [3]: 67-82%
